Data as given in patent EP4603105A1, “PHARMACEUTICAL COMPOSITION CONTAINING CYCLIC COMPOUND HAVING SELECTIVE KRAS INHIBITORY EFFECT AGAINST HRAS AND NRAS” (CHUGAI SEIYAKU KABUSHIKI KAISHA, priority 2022, dated 2024).

Key:
[1] = target: GDP-bound KRAS wild-type protein (Homo sapiens, UniProt P01116); assay: Binding to KRAS by surface plasmon resonance (SPR), dissociation constant KD; conditions: 1:1 binding model
How it was run: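 Biotinylated GDP-bound RAS was captured at about 100–300 RU. Running buffer: HBS pH 7.4, 10 mM MgCl2, 10 µM GDP, 1 mM DTT, 0.01% Tween 20, 4% DMSO.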

HRAS wild-type protein = HRAS wild-type protein (Homo sapiens, UniProt P01112); assay: Binding to HRAS by surface plasmon resonance (SPR), KD and KD ratio to KRAS; conditions: ratio of KD for HRAS wild-type protein to KD for KRAS
HRAS wild-type protein, sequence (P01112 whole entry): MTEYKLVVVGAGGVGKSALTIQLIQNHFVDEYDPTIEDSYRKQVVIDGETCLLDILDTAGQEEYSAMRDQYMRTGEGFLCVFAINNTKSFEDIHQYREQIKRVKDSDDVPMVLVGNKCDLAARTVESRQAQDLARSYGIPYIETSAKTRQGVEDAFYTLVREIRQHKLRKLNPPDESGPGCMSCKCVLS
How it was run: (§1)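 Single-cycle kinetics on GDP-loaded biotin-Avi RAS captured to ~100–300 RU; 75 s ascending injections, 100 µL/min, 30°C. HBS pH 7.4 + 10 mM MgCl2/10 µM GDP/4% DMSO. 1:1 fit, KD.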

[2] = target: GDP-bound NRAS wild-type protein (Homo sapiens, UniProt P01111); assay: Binding to NRAS by surface plasmon resonance (SPR), KD and KD ratio to KRAS; conditions: ratio of KD for GDP-bound NRAS wild-type protein to KD for KRAS
GDP-bound NRAS wild-type protein, sequence (P01111 whole entry): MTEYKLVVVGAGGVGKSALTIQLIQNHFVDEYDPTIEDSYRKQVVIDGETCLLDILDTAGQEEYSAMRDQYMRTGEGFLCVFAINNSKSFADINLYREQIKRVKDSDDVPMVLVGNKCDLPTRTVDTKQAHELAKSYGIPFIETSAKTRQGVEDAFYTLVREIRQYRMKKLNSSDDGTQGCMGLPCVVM
How it was run: as §1

[3] = system: human lung cancer strain NCI-H441; assay: NCI-H441 cell proliferation inhibitory activity (CellTiter-Glo, 4 days); type: cell-based; conditions: NCI-H441 cells, 4 days, read-out: NCl-H441 IC50
How it was run: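 Proliferation was scored by […] measured after the reagent was added to cultures kept at 37°C in 5% carbon dioxide.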

GDP-bound KRAS wild-type protein, sequence (P01116 1-188 isoform P01116-2): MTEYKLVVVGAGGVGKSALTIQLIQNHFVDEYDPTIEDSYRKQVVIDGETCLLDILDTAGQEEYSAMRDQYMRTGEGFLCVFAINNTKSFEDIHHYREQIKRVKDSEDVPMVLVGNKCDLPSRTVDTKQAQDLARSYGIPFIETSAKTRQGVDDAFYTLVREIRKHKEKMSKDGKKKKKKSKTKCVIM

| SMILES | Kd [1] [nM] | HRAS /KRAS (HRAS wild-type protein) | NRAS /KRAS [2] | IC50 [3] [nM] |
| --- | --- | --- | --- | --- |
| CCO[C@H](C)[C@@H]1NC(=O)[C@H](CC(C)C)N(C)C(=O)C[C@@H](C(=O)N(C)CC)N(C)C(=O)[C@H](C2CCCC2)N(C)C(=O)C2(CC(C)(C)C2)NC(=O)[C@@H]2C[C@H](C)CN2C(=O)[C@H](CCc2ccc(C(F)(F)F)c(OC)c2)NC(=O)CN(C)C(=O)[C@H](Cc2ccc(C)cc2)N2CC/C=C\C[C@@H](C2=O)N(C)C(=O)CN(C)C1=O [PP2413] | 0.25 | A (a compound having 10 or more and less than 20 is denoted as A) | A (a compound having 10 or more and less than 20 is denoted as A) | 115 |
| CCO[C@H](C)[C@@H]1NC(=O)[C@H](CC(C)C)N(C)C(=O)C[C@@H](C(=O)N(C)CC)N(C)C(=O)[C@H](C2CCCC2)N(C)C(=O)C2(CC(C)(C)C2)NC(=O)[C@@H]2C[C@H](C)CN2C(=O)[C@H](CCc2cc(F)c(C(F)(F)F)c(F)c2)NC(=O)CN(C)C(=O)[C@H](Cc2ccc(C)cc2)N2CC/C=C\C[C@@H](C2=O)N(C)C(=O)CN(C)C1=O [PP2414] | 0.33 | A (a compound having 10 or more and less than 20 is denoted as A) | A (a compound having 10 or more and less than 20 is denoted as A) | 9.8 |
| CCCO[C@H](C)[C@@H]1NC(=O)[C@H](CC(C)C)N(C)C(=O)C[C@@H](C(=O)N(C)C)N(C)C(=O)[C@H](C2CCCC2)N(C)C(=O)C2(CC(C)(C)C2)NC(=O)[C@@H]2C[C@H](C)CN2C(=O)[C@H](CCc2ccc(C(F)(F)F)c(OC)c2)NC(=O)CN(C)C(=O)[C@H](Cc2ccc(C)cc2)N2CC/C=C\C[C@@H](C2=O)N(C)C(=O)CN(C)C1=O [PP2415] | 0.093 | A (a compound having 10 or more and less than 20 is denoted as A) | AA (a compound having 20 or more is denoted as AA) | 10.3 |
| CCCO[C@H](C)[C@@H]1NC(=O)[C@H](CC(C)C)N(C)C(=O)C[C@@H](C(=O)N(C)CC)N(C)C(=O)[C@H](C2CCCC2)N(C)C(=O)C2(CC(C)(C)C2)NC(=O)[C@@H]2C[C@H](C)CN2C(=O)[C@H](CCc2ccc(C(F)(F)F)c(OC)c2)NC(=O)CN(C)C(=O)[C@H](Cc2ccc(C)cc2)N2CC/C=C\C[C@@H](C2=O)N(C)C(=O)CN(C)C1=O [PP2416] | 0.29 | B (a compound having 3 or more and less than 10 is denoted as B) | A (a compound having 10 or more and less than 20 is denoted as A) | 33.1 |
| CCO[C@H](C)[C@@H]1NC(=O)[C@H](CC(C)C)N(C)C(=O)C[C@@H](C(=O)N(C)C)N(C)C(=O)[C@H](C2CCCC2)N(C)C(=O)C2(CC(C)(C)C2)NC(=O)[C@@H]2C[C@H](C)CN2C(=O)[C@H](CCc2ccc(C(F)(F)F)c(OC)c2)NC(=O)CN(C)C(=O)[C@H](Cc2ccc(C)cc2)N2CC/C=C\C[C@@H](C2=O)N(C)C(=O)[C@@H]2CCCN2C1=O [PP2418] | 0.97 | B (a compound having 3 or more and less than 10 is denoted as B) | A (a compound having 10 or more and less than 20 is denoted as A) | 132 |
| CCCO[C@H](C)[C@@H]1NC(=O)[C@H](COCC)N(C)C(=O)C[C@@H](C(=O)N(C)CC)N(C)C(=O)[C@H](C2CCCC2)N(C)C(=O)C2(CC(C)(C)C2)NC(=O)[C@@H]2C[C@H](C)CN2C(=O)[C@H](CCc2ccc(C(F)(F)F)c(OC)c2)NC(=O)CN(C)C(=O)[C@H](Cc2ccc(C)cc2)N2CC/C=C\C[C@@H](C2=O)N(C)C(=O)CN(C)C1=O [PP2425] | 0.23 | A (a compound having 10 or more and less than 20 is denoted as A) | AA (a compound having 20 or more is denoted as AA) | 51.7 |
| CCCO[C@H](C)[C@@H]1NC(=O)[C@H](COCC)N(C)C(=O)C[C@@H](C(=O)N(C)CC)N(C)C(=O)[C@H](C2CCCC2)N(C)C(=O)C2(CC(C)(C)C2)NC(=O)[C@@H]2C[C@H](C)CN2C(=O)[C@H](CCc2cc(F)c(C(F)(F)F)c(F)c2)NC(=O)CN(C)C(=O)[C@H](Cc2ccc(C)cc2)N2CC/C=C\C[C@@H](C2=O)N(C)C(=O)CN(C)C1=O [PP2426] | 0.31 | A (a compound having 10 or more and less than 20 is denoted as A) | AA (a compound having 20 or more is denoted as AA) | 48 |
| CCOC[C@H]1C(=O)N[C@@H]([C@@H](C)CC)C(=O)N2CCC[C@H]2C(=O)N(C)[C@H]2C/C=C\CCN(C2=O)[C@@H](Cc2ccc(C)cc2)C(=O)N(C)CC(=O)N[C@@H](CCc2ccc(C(F)(F)F)c(OC)c2)C(=O)N2C[C@@H](C)C[C@H]2C(=O)NC2(CC(C)(C)C2)C(=O)N(C)[C@@H](C2CCCC2)C(=O)N(C)[C@H](C(=O)N(C)CC)CC(=O)N1C [PP2427] | 0.7 | A (a compound having 10 or more and less than 20 is denoted as A) | AA (a compound having 20 or more is denoted as AA) | 36.6 |
| CCOC[C@H]1C(=O)N[C@@H]([C@@H](C)CC)C(=O)N2CCC[C@H]2C(=O)N(C)[C@H]2C/C=C\CCN(C2=O)[C@@H](Cc2ccc(C)cc2)C(=O)N(C)CC(=O)N[C@@H](CCc2cc(F)c(C(F)(F)F)c(F)c2)C(=O)N2C[C@H](OCC)C[C@H]2C(=O)NC2(CC(C)(C)C2)C(=O)N(C)[C@@H](C2CCCC2)C(=O)N(C)[C@H](C(=O)N(C)CC)CC(=O)N1C [PP2428] | 0.62 | A (a compound having 10 or more and less than 20 is denoted as A) | A (a compound having 10 or more and less than 20 is denoted as A) | 4.8 |
| CCCOC[C@H]1C(=O)N[C@@H]([C@@H](C)CC)C(=O)N2CCC[C@H]2C(=O)N(C)[C@H]2C/C=C\CCN(C2=O)[C@@H](Cc2ccc(C)cc2)C(=O)N(C)CC(=O)N[C@@H](CCc2cc(F)c(C(F)(F)F)c(F)c2)C(=O)N2C[C@H](C)C[C@H]2C(=O)NC2(CC(C)(C)C2)C(=O)N(C)[C@@H](C2CCCC2)C(=O)N(C)[C@H](C(=O)N(C)CC)CC(=O)N1C [PP2430] | 1.4 | A (a compound having 10 or more and less than 20 is denoted as A) | AA (a compound having 20 or more is denoted as AA) | 33.2 |
| CCCOC[C@H]1C(=O)N[C@@H]([C@@H](C)OCC)C(=O)N2CCC[C@H]2C(=O)N(C)[C@H]2C/C=C\CCN(C2=O)[C@@H](Cc2ccc(C)cc2)C(=O)N(C)CC(=O)N[C@@H](CCc2cc(F)c(C(F)(F)F)c(F)c2)C(=O)N2C[C@H](OCC)C[C@H]2C(=O)NC2(CC(C)(C)C2)C(=O)N(C)[C@@H](C2CCCC2)C(=O)N(C)[C@H](C(=O)N(C)CC)CC(=O)N1C [PP2432] | 1.4 | A (a compound having 10 or more and less than 20 is denoted as A) | A (a compound having 10 or more and less than 20 is denoted as A) | 138 |
| CCCO[C@H](C)[C@@H]1NC(=O)[C@H](COCC)N(C)C(=O)C[C@@H](C(=O)N(C)CC)N(C)C(=O)[C@H](C2CCCC2)N(C)C(=O)C2(CC(C)(C)C2)NC(=O)[C@@H]2C[C@@H](OCC)CN2C(=O)[C@H](CCc2cc(F)c(C(F)(F)F)c(F)c2)NC(=O)CN(C)C(=O)[C@H](Cc2ccc(C)cc2)N2CC/C=C\C[C@@H](C2=O)N(C)C(=O)[C@@H]2CCCN2C1=O [PP2436] | 1.6 | A (a compound having 10 or more and less than 20 is denoted as A) | A (a compound having 10 or more and less than 20 is denoted as A) | 126 |
| CCOC[C@H]1C(=O)N[C@@H]([C@@H](C)CC)C(=O)N(C)CC(=O)N(C)[C@H]2C/C=C\CCN(C2=O)[C@@H](Cc2ccc(C)cc2)C(=O)N(C)CC(=O)N[C@@H](CCc2cc(F)c(C(F)(F)F)c(F)c2)C(=O)N2C[C@@H](C)C[C@H]2C(=O)NC2(CC(C)(C)C2)C(=O)N(C)[C@@H](C2CCCC2)C(=O)N(C)[C@H](C(=O)N(C)C)CC(=O)N1C [PP2439] | 0.12 | A (a compound having 10 or more and less than 20 is denoted as A) | A (a compound having 10 or more and less than 20 is denoted as A) | 6.6 |
| CCO[C@@H]1C[C@H]2C(=O)NC3(CC(C)(C)C3)C(=O)N(C)[C@@H](C(CC)CC)C(=O)N(C)[C@H](C(=O)N(C)C)CC(=O)N(C)[C@@H](COC)C(=O)N[C@@H]([C@@H](C)CC)C(=O)N(C)CC(=O)N(C)[C@H]3C/C=C\CCN(C3=O)[C@@H](CC3CCC(F)(F)CC3)C(=O)N(C)CC(=O)N[C@@H](CCc3cc(F)c(C(F)(F)F)c(F)c3)C(=O)N2C1 [PP2440] | 0.44 | A (a compound having 10 or more and less than 20 is denoted as A) | A (a compound having 10 or more and less than 20 is denoted as A) | 20.1 |
